Assay results: patent US20110191867A1

Tested on: serum antibodies of test subjects

## Biotin-aminocaproyl-CRSKVNGQCG-NH4 [Peptide 2C]
  serum reactions: Strongest reactivities
